Measurements published in publication PMC11157767 (Molecular Cancer, 2024).

System: TRIM24-MET-i cells
Details: GSEA v. DMSO
Method: The number of unique and shared differentially expressed genes between each comparison are shown in parentheses. A linear regression line is depicted along with Pearson’s correlation coefficient (r) and its associated p-value. […] Common negatively enriched genesets between all three comparisons are in bold. c, Heatmaps showing expression of Hallmark_Myc_Target_v1/2 genes for indicated cells and treatment comparisons (TRIM-MET cells were treated in vitro, TFG-MET cells in vivo). Select leading edge genes from GSEA are labeled.

Compound: CNC(=O)c1ccc(-c2cnc3ncc(Cc4ccc5ncccc5c4)n3n2)cc1F [Capmatinib]
- ES GOBP_NCRNA_METABOLIC_PROCESS: -0.6039
- ES GOBP_RIBONUCLEOPROTEIN_COMPLEX_BIOGENESIS: -0.6363
- ES GOBP_RIBOSOME_BIOGENESIS: -0.7035
- ES GOBP_RRNA_METABOLIC_PROCESS: -0.6814
- ES GOCC_90S_PRERIBOSOME: -0.8257
- ES GOCC_NUCLEOLUS: -0.4698
- ES GOCC_PRERIBOSOME: -0.8127
- ES GOCC_RIBONUCLEOPROTEIN_COMPLEX: -0.4981
- ES GOCC_SMALL_SUBUNIT_PROCESSOME: -0.8233
- ES GOMF_CATALYTIC_ACTIVITY_ACTING_ON_RNA: -0.4916
- ES GOMF_HYDROLASE_ACTIVITY_ACTING_ON_ACID_ANHYDRIDES: -0.3694
- ES GOMF_MRNA_BINDING: -0.4686
- ES GOMF_RIBONUCLEOPROTEIN_COMPLEX_BINDING: -0.568
- ES GOMF_SNORNA_BINDING: -0.8035
- ES HALLMARK_ADIPOGENESIS: -0.2484
- ES HALLMARK_ALLOGRAFT_REJECTION: -0.3747
- ES HALLMARK_ANDROGEN_RESPONSE: -0.535
- ES HALLMARK_ANGIOGENESIS: -0.5762
- ES HALLMARK_APICAL_JUNCTION: -0.2832
- ES HALLMARK_APICAL_SURFACE: 0.5506
- ES HALLMARK_APOPTOSIS: -0.4219
- ES HALLMARK_BILE_ACID_METABOLISM: 0.4031
- ES HALLMARK_CHOLESTEROL_HOMEOSTASIS: -0.4011
- ES HALLMARK_COAGULATION: -0.4551
- ES HALLMARK_COMPLEMENT: -0.4981
- ES HALLMARK_DNA_REPAIR: -0.2565
- ES HALLMARK_E2F_TARGETS: -0.3059
- ES HALLMARK_EPITHELIAL_MESENCHYMAL_TRANSITION: -0.2783
- ES HALLMARK_ESTROGEN_RESPONSE_EARLY: -0.385
- ES HALLMARK_ESTROGEN_RESPONSE_LATE: -0.2661
- ES HALLMARK_FATTY_ACID_METABOLISM: 0.234
- ES HALLMARK_G2M_CHECKPOINT: -0.3396
- ES HALLMARK_GLYCOLYSIS: -0.3498
- ES HALLMARK_HEDGEHOG_SIGNALING: -0.4541
- ES HALLMARK_HEME_METABOLISM: 0.2869
- ES HALLMARK_HYPOXIA: -0.3596
- ES HALLMARK_IL2_STAT5_SIGNALING: -0.5259
- ES HALLMARK_IL6_JAK_STAT3_SIGNALING: -0.2773
- ES HALLMARK_INFLAMMATORY_RESPONSE: -0.4368
- ES HALLMARK_INTERFERON_ALPHA_RESPONSE: 0.32
- ES HALLMARK_INTERFERON_GAMMA_RESPONSE: -0.2553
- ES HALLMARK_KRAS_SIGNALING_DN: 0.2731
- ES HALLMARK_KRAS_SIGNALING_UP: -0.491
- ES HALLMARK_MITOTIC_SPINDLE: -0.3333
- ES HALLMARK_MTORC1_SIGNALING: -0.5528
- ES HALLMARK_MYC_TARGETS_V1: -0.6393
- ES HALLMARK_MYC_TARGETS_V2: -0.8185
- ES HALLMARK_MYOGENESIS: -0.217
- ES HALLMARK_NOTCH_SIGNALING: -0.4058
- ES HALLMARK_OXIDATIVE_PHOSPHORYLATION: -0.3105
- ES HALLMARK_P53_PATHWAY: -0.2547
- ES HALLMARK_PANCREAS_BETA_CELLS: 0.3447
- ES HALLMARK_PEROXISOME: 0.2566
- ES HALLMARK_PI3K_AKT_MTOR_SIGNALING: -0.3267
- ES HALLMARK_PROTEIN_SECRETION: -0.3279
- ES HALLMARK_REACTIVE_OXYGEN_SPECIES_PATHWAY: -0.337
- ES HALLMARK_SPERMATOGENESIS: 0.1852
- ES HALLMARK_TGF_BETA_SIGNALING: -0.5788
- ES HALLMARK_TNFA_SIGNALING_VIA_NFKB: -0.6019
- ES HALLMARK_UV_RESPONSE_DN: -0.3389
- ES HALLMARK_UV_RESPONSE_UP: -0.4065
- ES HALLMARK_WNT_BETA_CATENIN_SIGNALING: -0.3938
- ES HALLMARK_XENOBIOTIC_METABOLISM: 0.19
- ES KRIGE_RESPONSE_TO_TOSEDOSTAT_6HR_DN: -0.5928
- ES KRIGE_RESPONSE_TO_TOSEDOSTAT_24HR_DN: -0.6267
- ES LEE_BMP2_TARGETS_DN: -0.6601
- ES PUJANA_CHEK2_PCC_NETWORK: -0.5659
- ES WEI_MYCN_TARGETS_WITH_E_BOX: -0.6789
- NES GOBP_NCRNA_METABOLIC_PROCESS: -2.536
- NES GOBP_NCRNA_PROCESSING: -2.602
- NES GOBP_RIBONUCLEOPROTEIN_COMPLEX_BIOGENESIS: -2.684
- NES GOBP_RIBOSOME_BIOGENESIS: -2.8623
- NES GOBP_RRNA_METABOLIC_PROCESS: -2.7
- NES GOCC_90S_PRERIBOSOME: -2.336
- NES GOCC_NUCLEOLUS: -2.057
- NES GOCC_PRERIBOSOME: -2.789
- NES GOCC_RIBONUCLEOPROTEIN_COMPLEX: -2.151
- NES GOCC_SMALL_SUBUNIT_PROCESSOME: -2.456
- NES GOMF_CATALYTIC_ACTIVITY_ACTING_ON_RNA: -2.047
- NES GOMF_HYDROLASE_ACTIVITY_ACTING_ON_ACID_ANHYDRIDES: -1.614
- NES GOMF_MRNA_BINDING: -1.915
- NES GOMF_RIBONUCLEOPROTEIN_COMPLEX_BINDING: -2.117
- NES GOMF_SNORNA_BINDING: -2.308
